Results taken from patent publication US20240376163A1, “PEPTIDE FOR INHIBITING CALCINEURIN AND USE THEREOF” (Seoul National University R&DB Foundation, priority 2023, published 2024).

System: Jurkat T cells
Assay: mRNA sequencing of activated Jurkat T cells
Assay type: cell-based, human
Details: Jurkat T cells, P + I

PEITVTPPTP [CABIN1-L-1-2]
ABTB2 FPKM: 6.382 FPKM
ACAP1 FPKM: 26.535 FPKM
ACSF3 FPKM: 15.621 FPKM
ADA FPKM: 73.254 FPKM
ADAMTS17 FPKM: 0.882 FPKM
ADCYAP1 FPKM: 3.219 FPKM
ADORA2A FPKM: 1.475 FPKM
AFF2 FPKM: 3.175 FPKM
AGK FPKM: 14.306 FPKM
ALDH1A2 FPKM: 6.66 FPKM
ALOX5AP FPKM: 39.735 FPKM
ANKEF1 FPKM: 2.575 FPKM
ANO8 FPKM: 2.721 FPKM
ANTXR2 FPKM: 55.18 FPKM
APH1B FPKM: 4.206 FPKM
APOBEC3B-AS1 FPKM: 20.386 FPKM
APOBEC3F FPKM: 7.066 FPKM
APOBEC3G FPKM: 9.231 FPKM
APOL1 FPKM: 4.498 FPKM
ARHGAP4 FPKM: 16.216 FPKM
ARHGAP25 FPKM: 2.157 FPKM
ARHGAP31 FPKM: 11.177 FPKM
ARHGEF3 FPKM: 8.674 FPKM
ARPP21 FPKM: 0.7 FPKM
ASB13 FPKM: 2.543 FPKM
ASNS FPKM: 19.026 FPKM
ATHL1 FPKM: 6.014 FPKM
ATP2A3 FPKM: 36.996 FPKM
ATP6V0A4 FPKM: 18.558 FPKM
ATP6V1B2 FPKM: 60.661 FPKM
ATPAF1 FPKM: 10.283 FPKM
AVPR2 FPKM: 1.492 FPKM
B2M FPKM: 1302.512 FPKM
BAHCC1 FPKM: 0.873 FPKM
BCL2A1 FPKM: 51.928 FPKM
BCL2L1 FPKM: 41.852 FPKM
BCL3 FPKM: 17.15 FPKM
BCL6 FPKM: 15.55 FPKM
BCL7A FPKM: 12.277 FPKM
BCL11B FPKM: 3.353 FPKM
BEND6 FPKM: 1.409 FPKM
BIN1 FPKM: 1.968 FPKM
BIRC3 FPKM: 58.303 FPKM
C10orf55 FPKM: 15.779 FPKM
C11orf74 FPKM: 0.392 FPKM
C21orf58 FPKM: 6.073 FPKM
CABP1 FPKM: 1.689 FPKM
CAMK2D FPKM: 6.138 FPKM
CARHSP1 FPKM: 14.562 FPKM
CBFA2T3 FPKM: 11.821 FPKM
CBLB FPKM: 7.757 FPKM
CBS FPKM: 3.916 FPKM
CBX2 FPKM: 2.454 FPKM
CCDC15 FPKM: 2.926 FPKM
CCL3 FPKM: 0.502 FPKM
CCL3L3 FPKM: 0.079 FPKM
CCL20 FPKM: 1.279 FPKM
CCND3 FPKM: 25.396 FPKM
CCNE2 FPKM: 5.206 FPKM
CD1B FPKM: 4.733 FPKM
CD1E FPKM: 3.521 FPKM
CD70 FPKM: 7.606 FPKM
CD82 FPKM: 222.109 FPKM
CD97 FPKM: 21.496 FPKM
CD200 FPKM: 0.094 FPKM
CD274 FPKM: 15.92 FPKM
CDKN1A FPKM: 62.513 FPKM
CDKN2D FPKM: 16.801 FPKM
CECR1 FPKM: 3.984 FPKM
CENPM FPKM: 14.415 FPKM
CEP70 FPKM: 12.745 FPKM
CERKL FPKM: 10.348 FPKM
CFLAR FPKM: 3.022 FPKM
CHEK2 FPKM: 7.751 FPKM
CHPF2 FPKM: 34.939 FPKM
CHPF FPKM: 12.714 FPKM
CHRNA3 FPKM: 3.499 FPKM
CHST12 FPKM: 12.639 FPKM
CNN2 FPKM: 18.455 FPKM
COL27A1 FPKM: 5.729 FPKM
CPD FPKM: 26.602 FPKM
CREB3L2 FPKM: 5.857 FPKM
CREB5 FPKM: 1.966 FPKM
CSF1 FPKM: 2.594 FPKM
CSF2 FPKM: 0.314 FPKM
CXCL8 FPKM: 3.327 FPKM
CXCL11 FPKM: 3.793 FPKM
CXCR4 FPKM: 34.014 FPKM
CYTH1 FPKM: 30.15 FPKM
DBP FPKM: 1.773 FPKM
DCBLD2 FPKM: 15.588 FPKM
DENND5A FPKM: 37.896 FPKM
DNAJB5 FPKM: 19.35 FPKM
DSTYK FPKM: 3.595 FPKM
DTL FPKM: 5.275 FPKM
DTX1 FPKM: 3.245 FPKM
DUSP6 FPKM: 12.914 FPKM
DUSP10 FPKM: 12.142 FPKM
E2F7 FPKM: 4.018 FPKM
ECE1 FPKM: 59.384 FPKM
EFHD2 FPKM: 234.38 FPKM
EGR1 FPKM: 123.294 FPKM
EGR2 FPKM: 9 FPKM
EHBP1L1 FPKM: 5.023 FPKM
EMP1 FPKM: 4.589 FPKM
ETS1 FPKM: 38.627 FPKM
FADS2 FPKM: 48.612 FPKM
FAM64A FPKM: 6.008 FPKM
FAT1 FPKM: 11.964 FPKM
FBLN2 FPKM: 3.01 FPKM
FKBP5 FPKM: 7.791 FPKM
FLI1 FPKM: 10.752 FPKM
FOSL1 FPKM: 12.705 FPKM
FOSL2 FPKM: 2.362 FPKM
FXYD5 FPKM: 42.856 FPKM
FYN FPKM: 15.512 FPKM
GAD1 FPKM: 2.238 FPKM
GFOD1 FPKM: 6.312 FPKM
GFRA1 FPKM: 0.76 FPKM
GKAP1 FPKM: 2.927 FPKM
GLRB FPKM: 1.354 FPKM
GLRX FPKM: 21.013 FPKM
GNG4 FPKM: 7.415 FPKM
GPC2 FPKM: 4.85 FPKM
GPR17 FPKM: 0.181 FPKM
GPR68 FPKM: 11.224 FPKM
GSE1 FPKM: 14.556 FPKM
GTDC1 FPKM: 5.144 FPKM
GXYLT2 FPKM: 4.24 FPKM
GZMB FPKM: 909.046 FPKM
HCAR1 FPKM: 7.943 FPKM
HIVEP3 FPKM: 20.545 FPKM
HLA-A FPKM: 226.558 FPKM
HLA-B FPKM: 160.359 FPKM
HPGD FPKM: 3.392 FPKM
IFIT3 FPKM: 6.682 FPKM
IKZF2 FPKM: 8.132 FPKM
IL2 FPKM: 12.964 FPKM
IL4R FPKM: 12.536 FPKM
IL10RA FPKM: 3.208 FPKM
IL15 FPKM: 3.16 FPKM
IL15RA FPKM: 7.481 FPKM
IL21R FPKM: 5.255 FPKM
IL21R-AS1 FPKM: 3.991 FPKM
IL27RA FPKM: 10.764 FPKM
IQCJ-SCHIP1 FPKM: 1.234 FPKM
IQGAP2 FPKM: 3.477 FPKM
IRF1 FPKM: 152.425 FPKM
IRF2 FPKM: 34.829 FPKM
IRF4 FPKM: 2.092 FPKM
IRF7 FPKM: 21.372 FPKM
ITGA4 FPKM: 31.73 FPKM
ITGAL FPKM: 7.674 FPKM
ITK FPKM: 62.324 FPKM
JAK2 FPKM: 8.45 FPKM
KCNK1 FPKM: 13.139 FPKM
KIAA0101 FPKM: 16.766 FPKM
KIAA0247 FPKM: 8.83 FPKM
KIR3DX1 FPKM: 3.992 FPKM
KLF10 FPKM: 15.364 FPKM
KLF12 FPKM: 4.377 FPKM
KREMEN1 FPKM: 2.958 FPKM
LAIR1 FPKM: 7.19 FPKM
LDLRAD4 FPKM: 4.769 FPKM
LEF1-AS1 FPKM: 2.388 FPKM
LEF1 FPKM: 48.109 FPKM
LGMN FPKM: 1.976 FPKM
LIF FPKM: 0.231 FPKM
LIMS2 FPKM: 4.304 FPKM
LINC00659 FPKM: 9.828 FPKM
LINC01260 FPKM: 7.215 FPKM
LMNA FPKM: 2.786 FPKM
LMO1 FPKM: 0.954 FPKM
LOC653712 FPKM: 2.808 FPKM
LOC100506688 FPKM: 1.704 FPKM
LOC101926963 FPKM: 4.742 FPKM
LOC101927497 FPKM: 10.444 FPKM
LPAR6 FPKM: 4.344 FPKM
LRRC8C FPKM: 11.753 FPKM
LRRC20 FPKM: 2.839 FPKM
LTBP4 FPKM: 9.568 FPKM
LUCATI FPKM: 9.183 FPKM
MAFF FPKM: 16.464 FPKM
MAGEA4 FPKM: 3.775 FPKM
MAL FPKM: 2.026 FPKM
MAMLD1 FPKM: 9.949 FPKM
MAP3K7CL FPKM: 2.03 FPKM
MAST4 FPKM: 5.841 FPKM
MAZ FPKM: 99.474 FPKM
MCM2 FPKM: 23.634 FPKM
MCTP2 FPKM: 3.187 FPKM
METRN FPKM: 1.604 FPKM
MFAP4 FPKM: 0.663 FPKM
MGAT4A FPKM: 8.882 FPKM
MICAL2 FPKM: 1.84 FPKM
MIR22HG FPKM: 8.63 FPKM
MIR3652 FPKM: 567.901 FPKM
MIR6775 FPKM: 21.57 FPKM
MIR6821 FPKM: 25.116 FPKM
